According to patent US10206909B2, “3-(1H-pyrrolo[2,3-B]pyridin-2-yl)-1H-pyrazolo[4,3-B]pyridines and therapeutic uses thereof” (Samumed, LLC, priority 2015, dated 2019):

Legend:
Assay type in all cases: cell-based
[1] = system: Wnt activity (Sp5-Luc reporter, SW480 colon carcinoma cells); test: Wnt activity screening assay: Sp5-Luc reporter gene assay in SW480 cells; conditions: Homo sapiens; for EC50: SW480 cells, overnight incubation; for inhibition at 10 µM: given where EC50 >10 μM, SW480, read-out: percent inhibition at 10 μM
How it was run: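 Luminescence (BrightGlo) read after overnight 37 °C exposure of Sp5-Luc SW480 reporter cells, 4,000/well in 1% FBS, to compound dosed 1:3 over 10 points from 10 μM with 0.1% DMSO. Values normalized to DMSO-only cells, fitted with variable-slope four-parameter model; where EC50 exceeds 10 μM, % inhibition at 10 μM reported.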

SW480 colon cancer cells = test: Cell viability assay (CellTiter-Blue); conditions: Homo sapiens; for EC50: 96 h, SW480 cell viability, four days, CellTiter-Blue; for inhibition at 10 µM: given where EC50 >10 μM, SW480 viability, read-out: percent inhibition at 10 μM
How it was run: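 Resazurin reduction (Ex 560/Em 590 nm, ~3 h reagent incubation) served as the viability read-out after SW480 cells were treated for four days at 37 °C. Doses ran from 10 μM down to 0.0045 μM in eight 1:3 steps. Curves fitted non-linearly for EC50, else % inhibition at 10 μM reported.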

[2] = system: primary human mesenchymal stem cells (hMSCs); test: Chondrogenesis induction in mesenchymal stem cells (nodule count); conditions: 144 h, 6 days; for EC50: concentration required to induce 50% levels of chondrogenesis vs TGF-β3, read-out: Conc (nM) of 50% TGF-β3 activity; for Emax: relative to TGF-β3 (10 ng/mL) positive control, read-out: Max. Activity as % TGF-β3 activity
Protocol: Representative compounds were screened using primary human mesenchymal stem cells (hMSCs) to determine their ability to induce chondrogenesis (process by which cartilage is developed).
Human Mesenchymal Stem Cell Culture: Primary human mesenchymal stem cells (hMSCs) were purchased from Lonza (Walkersville, Md.) and expanded in Mesenchymal Stem Cell Growth Media (Lonza). Cells between passage 3 and 6 were used for the experiments.
Compound Screening: Each compound was dissolved in DMSO as a 10 mM stock and used to prepare compound source plates. Serial dilution (1:3, 6-point dose-response curves from 2700 nM to 10 nM) and compound transfer was performed using the ECHO 550 (Labcyte, Sunnyvale, Calif.) into 96-well clear bottom assay plates (Greiner Bio-One) with appropriate DMSO backfill for a final DMSO concentration of 0.03%. hMSCs were plated at 20,000 cells/well in 250 μL/well Incomplete Chondrogenic Induction Medium (Lonza; DMEM, dexamethasone, ascorbate, insulin-transferrin-selenium [ITS supplement], gentamycin-amphotericin [GA-1000], sodium pyruvate, proline and L-glutamine). TGF-β3 (10 ng/mL) was used as a positive control for differentiation while negative control wells were treated with 75 nL DMSO for normalization and calculating EC50 values. Cells were incubated at 37° C. and 5% CO2 for 6 days. To image chondrogenic nodules, the cells were fixed using 4% formaldehyde (Electron Microscopy Sciences), and stained with 2 μg/mL Rhodamine B (Sigma-Aldrich) and 20 μM Nile Red (Sigma-Aldrich) [Johnson K., et. al, A Stem Cell-Based Approach to Cartilage Repair, Science, (2012). 336(6082), 717-721]. The nodules imaged (4 images per well at 4× magnification) by excitation at 531 nm and emission at 625 nm and quantified using the CellInsight CX5 (Thermo Scientific). Number of nodules in each well was normalized to the average of 3 DMSO treated wells on the same plate using Excel (Microsoft Inc.). The normalized averages (fold change over DMSO) of 3 replicate wells for each compound concentration were calculated. Due to solubility limitations of some of the compounds, curve fitting was incomplete leading to inaccurate EC50 determinations.
Using TGF-β3 as a positive control, the concentration of representative compounds required to induce 50% levels of chondrogenesis is reported. In addition, the maximum activity of each compound and the respective dose that each compound reached maximum chondrogenesis activity is reported.

| Structure (SMILES) | EC50 [1] [µM] | inhibition at 10 µM [1] [%] | EC50 (SW480 colon cancer cells) [µM] | inhibition at 10 µM (SW480 colon cancer cells) [%] | EC50 [2] [nM] | Emax [2] [%] |
| --- | --- | --- | --- | --- | --- | --- |
| CN(C)Cc1cncc(-c2ccc3[nH]nc(-c4cc5c(N6CCCCC6)ccnc5[nH]4)c3n2)c1 [Compound 181, N,N-Dimethyl-1-(5-(3-(4-(piperidin-1-yl)-1H-pyrrolo[2,3-b]pyridin-2-yl)-1H-pyrazolo[4,3-b]pyridin-5-yl)pyridin-3-yl)methanamine] | > 10 | 4.1 | > 10 | 47.5 | 10 | 82 |
| CCCCC(=O)Nc1cncc(-c2ccc3[nH]nc(-c4cc5c(N6CCCCC6)ccnc5[nH]4)c3n2)c1 [Compound 187, N-(5-(3-(4-(Piperidin-1-yl)-1H-pyrrolo[2,3-b]pyridin-2-yl)-1H-pyrazolo[4,3-b]pyridin-5-yl)pyridin-3-yl)pentanamide] | > 10 | 14.3 | 3.53 |  | 10 | 92 |
| FC1(F)CCN(Cc2cncc(-c3ccc4[nH]nc(-c5cc6c(N7CCCCC7)ccnc6[nH]5)c4n3)c2)C1 [Compound 194, 5-(5-((3,3-Difluoropyrrolidin-1-yl)methyl)pyridin-3-yl)-3-(4-(piperidin-1-yl)-1H-pyrrolo[2,3-b]pyridin-2-yl)-1H-pyrazolo[4,3-b]pyridine] | 5.27 |  | > 10 | 28.3 |  | 38 |
| c1ncc(-c2ccc3[nH]nc(-c4cc5c(N6CCCCC6)ccnc5[nH]4)c3n2)cn1 [Compound 195, 3-(4-(Piperidin-1-yl)-1H-pyrrolo[2,3-b]pyridin-2-yl)-5-(pyrimidin-5-yl)-1H-pyrazolo[4,3-b]pyridine] | > 10 | 12.6 | > 10 | 22.9 | 10 | 100 |
| CC(C)CC(=O)Nc1cncc(-c2ccc3[nH]nc(-c4cc5c(N6CCN(C)CC6)ccnc5[nH]4)c3n2)c1 [Compound 226, 3-Methyl-N-(5-(3-(4-(4-methylpiperazin-1-yl)-1H-pyrrolo[2,3-b]pyridin-2-yl)-1H-pyrazolo[4,3-b]pyridin-5-yl)pyridin-3-yl)butanamide] | 3.45 |  | 1.55 |  |  | 49 |
| CN1CCN(c2ccnc3[nH]c(-c4n[nH]c5ccc(-c6cncc(NC(=O)C(C)(C)C)c6)nc45)cc23)CC1 [Compound 232, N-(5-(3-(4-(4-Methylpiperazin-1-yl)-1H-pyrrolo[2,3-b]pyridin-2-yl)-1H-pyrazolo[4,3-b]pyridin-5-yl)pyridin-3-yl)pivalamide] | 3.83 |  | 1.44 |  |  | 24 |
| CN1CCN(c2ccnc3[nH]c(-c4n[nH]c5ccc(-c6cncc(NC(=O)c7ccccc7)c6)nc45)cc23)CC1 [Compound 235, N-(5-(3-(4-(4-Methylpiperazin-1-yl)-1H-pyrrolo[2,3-b]pyridin-2-yl)-1H-pyrazolo[4,3-b]pyridin-5-yl)pyridin-3-yl)benzamide] | 6.09 |  | 3.27 |  | 10 | 62 |
| CN1CCN(c2ccnc3[nH]c(-c4n[nH]c5ccc(-c6cncc(NC(=O)CC(C)(C)C)c6)nc45)cc23)CC1 [Compound 240, 3,3-Dimethyl-N-(5-(3-(4-(4-methylpiperazin-1-yl)-1H-pyrrolo[2,3-b]pyridin-2-yl)-1H-pyrazolo[4,3-b]pyridin-5-yl)pyridin-3-yl)butanamide] | 3.91 |  | 2 |  |  | 30 |
| c1cncc(-c2ccc3[nH]nc(-c4cc5cccnc5[nH]4)c3n2)c1 [Compound 256, 5-(Pyridin-3-yl)-3-(1H-pyrrolo[2,3-b]pyridin-2-yl)-1H-pyrazolo[4,3-b]pyridine] | > 10 | 47 | > 10 | 23.2 | 10 | 66 |
| CCNCc1cncc(-c2ccc3[nH]nc(-c4cc5cccnc5[nH]4)c3n2)c1 [Compound 258, N-((5-(3-(1H-Pyrrolo[2,3-b]pyridin-2-yl)-1H-pyrazolo[4,3-b]pyridin-5-yl)pyridin-3-yl)methyl)ethanamine] | 3.78 |  | 2.81 |  | 10 | 80 |
